# Measurements from patent US20080280759A1, “6-(2-Fluoro-4-Alkoxyphenyl) Triazolopyrimidines, Their Preparation, Their Use For Controlling Harmful Fungi, and Compositions Comprising Them” (priority 2003, published 2008).
# Test system: Botrytis cinerea
# Assay: Activity against gray mold on bell pepper leaves caused by Botrytis cinerea, protective application
# Type: in vivo
# Settings: 250 ppm, sprayed the day before inoculation, assessed visually after 5 days, untreated plants 80% infected
# Description: The active compounds were formulated separately as a stock solution with 0.25% by weight in acetone or DMSO. 1% by weight of the emulsifier Wettol EM 31 (wetting agent having emulsifying and dispersing action based on ethoxylated alkylphenols) was added to this solution. The stock solutions of the active compounds were diluted with water to the stated concentration. For examples 1 and 2, the active compounds were prepared as a stock solution with 25 mg of active compound which was made up to 10 ml using a mixture of acetone and/or DMSO and the emulsifier Uniperol® EL (wetting agent having emulsifying and dispersing action based on the ethoxylated alkylphenols) in a volume ratio of solvent/emulsifier of 99 to 1. The mixture was then made up with water to 100 ml. This stock solution was diluted with the solvent/emulsifier/water mixture described to the concentration of active compounds stated below. Bell pepper seedlings of the cultivar “Neusiedler Ideal Elite” were, after 2 to 3 leaves were well developed, sprayed to runoff point with an aqueous suspension having the concentration of active compounds stated below. The next day, the treated plants were inoculated with a spore suspension of Botrytis cinerea which contained 1.7×10^6 spores/ml in a 2% aqueous biomalt solution. The test plants were then placed in a dark climatized chamber at 22 to 24° C. and high atmospheric humidity. After 5 days, the extent of the fungal infection on the leaves could be determined visually in %.
row,Compound,fungal infection on the leaves
1,"5-methoxy-6-(2,6-difluoro-4-methoxyphenyl)-7-(4-methyl-piperidinyl)-1,2,4-triazolo[1,5a]pyrimidine [Compound I-3]",no infection
2,"COc1cc(F)c(-c2c(C#N)nc3ncnn3c2N2CCC(C)CC2)c(F)c1 [Compound I-1, 5-cyano-6-(2,6-difluoro-4-methoxyphenyl)-7-(4-methyl-piperidinyl)-1,2,4-triazolo[1,5a]pyrimidine]",no infection
3,"COc1cc(F)c(-c2c(C)nc3ncnn3c2N2CCC(C)CC2)c(F)c1 [Compound I-2, 5-methyl-6-(2,6-difluoro-4-methoxyphenyl)-7-(4-methyl-piperidinyl)-1,2,4-triazolo[1,5a]pyrimidine]",no infection
